One molecule from patent US7365053B2, “Selective N-acylation of A82846 glygopeptides analogs” (priority 2000, dated 2008) can be followed below.

The structures appear in SMILES notation. ≈ marks a conversion by molar mass, not a printed value.

The subject of one test is Enterococcus faecium 180. In words: Broth micro-dilution MIC. It is filed as cell-based. Conditions: BHI medium. In a few lines: (§1)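 Microbroth susceptibility testing per NCCLS dilution standard; NCCLS-recommended medium for non-enterococcal strains, BHI for enterococci. Read-out: MIC, mcg/mL.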
In general terms: In broth dilution the organism is exposed to a series of concentrations in liquid medium.

For a further test, the system named is Escherichia coli EC14. The experiment in a line: Broth micro-dilution MIC. Type of test: cell-based. In a few lines: (§2)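 Compounds were serially diluted in broth following the NCCLS microdilution method. Bacteria were grown in the NCCLS-recommended medium, or in brain-heart infusion for enterococci. The minimal inhibitory concentration was then recorded in mcg/mL.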

The subject of test [1] is Staphylococcus aureus 489. The experiment in a line: Broth micro-dilution MIC. It is filed as cell-based. In a few lines:
as §2

Test [2] deals with Enterococcus faecalis 2041. The experiment in a line: Broth micro-dilution MIC. It is filed as cell-based. As to conditions: BHI medium. In a few lines:
as §1

The test system of test [3] is Enterococcus faecalis 276. The experiment in a line: Broth micro-dilution MIC. It is filed as cell-based. As to conditions: BHI medium. In a few lines:
as §1

For test [4], the system named is Staphylococcus aureus SA1199B. The experiment in a line: Broth micro-dilution MIC. It is filed as cell-based. In a few lines:
as §2

The subject of test [5] is Staphylococcus aureus X400. In words: Broth micro-dilution MIC. It is filed as cell-based. In a few lines:
as §2

Test [6] concerns Staphylococcus epidermidis 270. The experiment in a line: Broth micro-dilution MIC. Type of test: cell-based. In a few lines: as §2
The test system of test [7] is Haemophilus influenzae RD. In words: Broth micro-dilution MIC. It is filed as cell-based. In a few lines:
as §2

Test [8] deals with Staphylococcus aureus SA1199A. In words: Broth micro-dilution MIC. It is filed as cell-based. In a few lines: as §2
Test [9] concerns Streptococcus pneumoniae P1. In words: Broth micro-dilution MIC. Type of test: cell-based. In a few lines:
as §2

The test system of test [10] is Staphylococcus aureus 446. In words: Broth micro-dilution MIC. It is filed as cell-based. In a few lines: as §2
Test [11] has as its system Enterococcus faecium 180-1. In words: Broth micro-dilution MIC. Type of test: cell-based. As to conditions: BHI medium. In a few lines: as §1
The subject of test [12] is Staphylococcus haemolyticus 415. The experiment in a line: Broth micro-dilution MIC. It is filed as cell-based. In a few lines: as §2
Test [13] relates to Staphylococcus aureus X778. In words: Broth micro-dilution MIC. Type of test: cell-based. In a few lines:
as §2

In test [14] the test system is Staphylococcus aureus 447. In words: Broth micro-dilution MIC. Type of test: cell-based. In a few lines:
as §2

The subject of test [15] is Staphylococcus aureus SA1199. The experiment in a line: Broth micro-dilution MIC. It is filed as cell-based. In a few lines: as §2
In test [16] the test system is Enterococcus gallinarum 245. In words: Broth micro-dilution MIC. Type of test: cell-based. As to conditions: BHI medium. In a few lines: as §1
Test [17] concerns Staphylococcus aureus S13E. The experiment in a line: Broth micro-dilution MIC. It is filed as cell-based. In a few lines:
as §2

The test system of test [18] is Staphylococcus aureus 491. The experiment in a line: Broth micro-dilution MIC. It is filed as cell-based. In a few lines:
as §2

Test [19] relates to Staphylococcus haemolyticus 105. The experiment in a line: Broth micro-dilution MIC. It is filed as cell-based. In a few lines:
as §2

The test system of test [20] is Streptococcus pyogenes C203. In words: Broth micro-dilution MIC. Type of test: cell-based. In a few lines: as §2
The subject of test [21] is vancomycin-sensitive enterococci. The experiment in a line: In vitro activity against enterococci, broth microdilution. Type of test: cell-based, Enterococcus faecium and Enterococcus faecalis. Conditions: representative vancomycin-sensitive enterococci (E. faecium and E. faecalis); BHI medium. In a few lines:
as §1

In test [22] the test system is vancomycin-resistant enterococci. The test is described as above. It is filed as cell-based, Enterococcus faecium and Enterococcus faecalis. As to conditions: representative vancomycin-resistant enterococci (E. faecium and E. faecalis); BHI medium. In a few lines: as §2

`CNC(CC(C)C)C(=O)NC1C(=O)NC(CC(N)=O)C(=O)NC2C(=O)NC3C(=O)NC(C(=O)NC(C(=O)O)c4cc(O)cc(O)c4-c4cc3ccc4O)C(OC3CC(C)(N)C(O)C(C)O3)c3ccc(c(Cl)c3)Oc3cc2cc(c3OC2OC(CO)C(O)C(O)C2OC2CC(C)(NC(=O)c3ccc(-c4ccccc4)cc3)C(O)C(C)O2)Oc2ccc(cc2Cl)C1O` (stereo not drawn) [Example 1]: the MIC against Enterococcus faecium 180 is 0.25 µg/mL (≈ 0.141 µM); in the test on Escherichia coli EC14 it was more than 64 µg/mL; in [1], 0.5 µg/mL (≈ 0.282 µM); in test [2], 0.125 µg/mL (≈ 0.0705 µM); in test [3], 0.5 µg/mL (≈ 0.282 µM); in [4], 2 µg/mL (≈ 1.13 µM). Moreover, the MIC in [5] is 1 µg/mL (≈ 0.564 µM); in test [6], 16 µg/mL (≈ 9.03 µM); in test [7], more than 64 µg/mL; in [8] it was 0.125 µg/mL (≈ 0.0705 µM); in [9], “≦.06 μg/ml”; in [10], 2 µg/mL (≈ 1.13 µM). Moreover, the MIC result is “≦.06 μg/ml” in test [11]; 8 µg/mL (≈ 4.51 µM) in test [12]; 1 µg/mL (≈ 0.564 µM) in [13]; 16 µg/mL (≈ 9.03 µM) in test [14]; 2 µg/mL (≈ 1.13 µM) in test [15]; 8 µg/mL (≈ 4.51 µM) in test [16]. For the same molecule, the MIC was 2 µg/mL (≈ 1.13 µM) in [17], 0.25 µg/mL (≈ 0.141 µM) in [18], 1 µg/mL (≈ 0.564 µM) in [19] and “≦.06 μg/ml” in [20]. Also, in test [21], the “Mean geometric MIC, Vancomycin Sensitive Strains” value was 0.38 µg/mL. Also, the “Mean geometric MIC, Vancomycin Resistant Strains” value in [22] is 11.3 µg/mL.
